The NIST ThermoML archive (doi:10.1016/j.fluid.2019.05.001)
Numbers after ± are expanded uncertainties.

Conditions: Crystal; DTA

Normal melting temperature: 73.00 ± 1 °C
SMILES: CCOC(=O)CCC[N+]1(C)CCCC1.[Br-] [1-(4-ethoxy-4-oxobutyl)-1-methylpyrrolidinium bromide]
